Test results as given in paper PMC11440500, “A De Novo Metalloenzyme for Cerium Photoredox Catalysis” (Journal of the American Chemical Society, 2024).

System: T1, PLZ1.4 (PhotoLanZyme 1.4)
T1 construct: de novo design; single-chain fusion of two TFD subunits via one Gly; active-site W6 and W175 removed, two active-site mutations, eight surface mutations (6x D to N, 2x E to Q); loaded with CeCl3
Experiment: Michaelis-Menten kinetics of photocatalytic diol cleavage
Format: biochemical, synthetic construct
Conditions: CeCl3-loaded enzyme, visible light, aerobic, aqueous buffer

SMILES | Km ((R,R) isomer per Figure 2F) | Km
O[C@H](c1ccccc1)[C@H](O)c1ccccc1 [(R,R)-1] | 2.9 ± 0.4 mM | 
OCC(Oc1ccccc1)C(O)c1ccccc1 (centres unmarked) [compound 24, lignin surrogate 24] |  | 5.5 ± 1 mM
